Where a SMILES comes first, the peptide text is derived from it. The star is where a group is joined. Cbz = O=C(OCc1ccccc1)*; CH2F = FC*
Experiments:
[1] = tested on: RIPK1; assay: RIPK1 cleavage in BMDC by immunoblot; format: cell-based, mice
Procedure: Day 7 BMDC were lysed in Tris-buffer containing Complete Protease Inhibitor (Roche), 0.2% NP-40 (Roche), and biotin-VAD-fmk (10 μM, MP Biomedicals, Santa Ana, Calif.). Insoluble cell fragments were removed by centrifugation, and the protein concentration of the resulting whole cell lysates was determined by Bradford assay (BioRad, Hercules, Calif.). Whole cell lysates (30 μg per lane) were separated by SDS-PAGE. Precipitation of active caspases was performed by rocking 600 μg of whole cell lysates initially with sepharose 4B beads (Sigma) at 4° C. for 2 hours to remove nonspecific binding of proteins to the beads, followed by overnight rocking incubation with streptavidin-conjugated sepharose beads (Invitrogen) at 4° C. Release of biotin-VAD-fmk-labeled caspases from the streptavidin beads was achieved by heating to 95° C. for 10 min in Laemmli buffer. After gel electrophoresis, proteins were transferred to PVDF membranes (0.2 μm pore size, Bio-Rad), and immunoblots were performed using antibodies (1 μg/ml) against caspase-3, caspase-8 (both Cell Signaling, Danvers, Mass.), caspase-9 (Stressgen, Farmingdale, N.Y.), and RIPK1 (BD Biosciences).

[2] = tested on: BMDC; assay: Cytokine production by Borrelia-stimulated BMDC (Bio-Plex); format: cell-based, mice; conditions: zVAD, 20 h
Procedure: The preparation of bone marrow-derived dendritic cells (BMDC) was done according to the method of Lutz et al. (26) using GM-CSF ([…] PeproTech, Rocky Hill N.J.) or GM-CSF plus IL-4 (10 μg/ml, PeproTech). Cells were used on day 7.
Day 7 γδ T cells and BMDC were cultured either individually or together at a 1:1 ratio (10^6 cells/ml each). To some cultures the following reagents were added: a sonicate of Borrelia burgdorferi (10 μg/ml), zVAD-fmk (MP Biomedical, Santa Ana Calif.) at the doses indicated, necrostatin (50 μM, R&D Systems, Minneapolis, Minn.), anti-TNF-α (10 μg/ml, Calbiochem, Darnstadt, Germany),, anti-IL-1 Receptor antagonist, Anakinra (200 ng/ml, Amgen, Thousand Oaks, Calif.), anti-IL-12 (10 μg/ml, BioLegend San Diego, Calif.), anti-IL-18 (10 μg/ml, MBL, Woburn Mass.), or rat IgG (10 μg/ml Jackson Immunoresearch, West Grove Pa.). Transwell assays were performed using 1×10^6 γδ T cells in 1 ml of complete medium+IL-2 placed in the lower chamber, with 5×10^5 DC in 100 μl placed in the upper chamber. […]
Cytokine levels of IFN-γ, IL-1β, IL-12p40, IL-12p70, IL-17, and TNF-α were detected using the Bio-Plex, MilliPlex, or Luminex immunoassay (Bio-Rad; Millipore-EMD; R&D Systems, Minneapolis, Minn.) according to the manufacturer's protocol. Briefly, samples were run undiluted or diluted 1:10 in RPMI complete media. 50 μl of the magnetic bead working solution was added to each well, then 50 μl of appropriate samples or standards were then added to wells and incubated at room temperature for 30-120 min at 800 rpm on an IKA MS 3 digital shaker. After three washes with 100 μl Bio-Plex wash buffer, incubation with 25 μl of detection antibody solution was done at room temperature for 30-60 min on the shaker. Following another set of three washes, 50 μl of streptavidin-phycoerythrin (PE) in assay buffer was added to each well and incubated as described for the previous step. After an additional three washes, 125 μl of assay buffer was added. Sample data was analyzed with Bio-Plex Manager software.

[3] = tested on: human DC; assay: Cell death of human DC from peripheral blood monocytes; format: cell-based; conditions: human DC cultured with GM-CSF, zVAD at doses very similar to murine DC, 20 h
Procedure: Human monocytes were obtained as […] cells by magnetic bead purification (Miltenyi Biotech, Auburn, Calif.) from peripheral blood of healthy volunteers. Myeloid DC were prepared by culture of monocytes in AIM V media plus 10% fetal calf serum (HyClone) with 800 U/ml of granulocyte-macrophage colony-stimulating factor (GM-CSF), (BioLegend, San Diego, Calif.) without or with 500 U/ml IL-4 (BioLegend). Cell death was examined by terminal deoxynucleotidyl transferase dUTP nick end labeling (TUNEL). Briefly, cells were stained for expression of cell surface molecules, and then fixed with 1% methanol-free formaldehyde followed by 70% ethanol. After washing, the TUNEL reaction was performed by incubating cells in 50 μl of reaction mix containing 10 units of terminal deoxribosyl transferase (TdT), 2.5 mM cobalt chloride in 1× TdT buffer, and 0.2 pmol/μl of FITC-dUTP (Roche, Indianapolis, Ind.) at 37° C. for 1 hour. The cells were washed twice and fixed in 1% methanol-free formaldehyde. Murine thymocytes were included as a positive control for apoptotic cells. Flow cytometry was performed on an LSRII (BD Biosciences, San Jose, Calif.) calibrated with compensation beads (BD Biosciences). Analysis was performed using FlowJo software (Tree Star, Inc., Ashland, Oreg.).

[4] = tested on: human synovial Vδ1 clone Bb15; assay: Human synovial γδ T cell clone Bb15 cultured with human DC and B. burgdorferi; format: cell-based; conditions: Borrelia plus zVAD-treated (50 μM) DC cultured with GM-CSF alone
Procedure: γδ T cell clones were derived from synovial fluid T cells stimulated with B. burgdorferi sonicate (10 μg/ml) and then cloned at limiting dilution as previously described (8). All clones are of the Vδ1 subset by antibody staining and DNA sequencing (8). Clones were restimulated every 10-14 days in the presence of irradiated peripheral blood lymphocytes (3×10^5/well), human recombinant IL-2 (10 U/ml), and 10 μg/ml of B. burgdorferi.
Human monocytes were obtained as […] cells by magnetic bead purification (Miltenyi Biotech, Auburn, Calif.) from peripheral blood of healthy volunteers. Myeloid DC were prepared by culture of monocytes in AIM V media plus 10% fetal calf serum (HyClone) with 800 U/ml of granulocyte-macrophage colony-stimulating factor (GM-CSF), (BioLegend, San Diego, Calif.) without or with 500 U/ml IL-4 (BioLegend).

CC(C)[C@H](NC(=O)OCc1ccccc1)C(=O)N[C@@H](C)C(=O)N[C@@H](CC(=O)O)C(=O)CF [zVAD, N-benzyloxycarbonyl-Val-Ala-Asp-fluoromethyl ketone] (Cbz-Val-Ala-Asp-CH2F)
cleavage of RIPK1 ([1]; BMDC cultured with GM-CSF only, zVAD): completely inhibited cleavage | cleavage of RIPK1 ([1]; BMDC cultured with GM-CSF+IL-4, zVAD): only partially inhibited | BMDC production of IL-1β [2]: completely inhibited | BMDC production of TNF-α [2]: augmented | production of IL-12 p40 by BMDC [2]: partially inhibited | production of IL-12 p70 by BMDC [2]: partially inhibited | death of human DC [3]: highly susceptible to death | IFN-γ production by clone Bb15 [4]: increased IFN-γ production

From patent US10456441B2, “Augmenting the immune response by promoting cell death of immune cells” (The University of Vermont and State Agricultural College, priority 2014, dated 2019)
